This assay has as its system subgenomic HCV replicon in Huh-7 cells. Nature of the assay: Cell-Based HCV Replication Assay (replicon, NS3 Cell-ELISA). The arrangement: species or system hepatitis C virus (HCV). The conditions noted are these: read-out: Cell based HCV Replication Assay-IC50. From the text: Another suitable assay is the cellular Replicon or rheplisa assay described as follows:
Cell-Based HCV Replication Assay
Cell clones that stably maintain subgenomic HCV replicon were obtained by transfecting Huh-7 cells with an RNA replicon identical to I377neo/NS3-3′/wt described by V. Lohmann et al., 285 SCIENCE 110 (Jul. 2, 1999) (EMBL-GENBANK No. AJ242652), followed by selection with neomycin sulfate (G418). Viral replication was monitored by measuring the expression of the NS3 protein by an ELISA assay performed directly on cells grown in 96-well microtiter plates (Cell-ELISA) using the anti-NS3 monoclonal antibody 10E5/24 (as described in International Patent Application Publication WO 02/59321). Cells were seeded into 96 well plates at a density of 10^4 cells per well in a final volume of 0.1 ml of DMEM/10% FCS. Two hours after plating, 50 μl of DMEM/10% FCS containing a 3× concentration of inhibitor were added, cells were incubated for 96 hours and then fixed for 10 minutes with ice-cold isopropanol. Each condition was tested in duplicate and average absorbance values were used for calculations. The cells were washed twice with PBS, blocked with 5% non-fat dry milk in PBS+0.1% TRITON X-100+0.02% SDS (PBSTS) and then incubated o/n at 4° C. with the 10E5/24 mab diluted in Milk/PBSTS. After washing 5 times with PBSTS, the cells were incubated for 3 hours at room temperature with Fe-specific anti-mouse IgG conjugated to alkaline phosphatase (Sigma), diluted in Milk/PBSTS. After washing again as above, the reaction was developed with p-nitrophenyl phosphate disodium substrate (Sigma) and the absorbance at 405/620 nm read at intervals. For calculations, we used data sets where samples incubated without inhibitors had absorbance values comprised between 1 and 1.5. The inhibitor concentration that reduced by 50% the expression of NS3 (IC50) was calculated by fitting the data to the Hill equation, Fraction inhibition=1−(Ai−b)/(A0−b)=[I]^n/([I]+IC50) where: • Ai=absorbance value of HBI10 cells supplemented with the indicated inhibitor concentration. • A0=absorbance value of HBI10 cells incubated without inhibitor. • b=absorbance value of Huh-7 cells plated at the same density in the same microtiter plates and incubated without inhibitor. • n=Hill coefficient.
(Replicon systems follow genome replication, usually without infectious particles.)

Where [1] appears, read: Hepatitis C virus, Huh-7 cells with subgenomic HCV replicon, NS3 expression by Cell-ELISA, 96 hours incubation.

Read-outs that look alike come from different tables or passages of the source.

A word on the IC50: it is the concentration needed to halve the response being measured. In the case of `C=C[C@@H]1C[C@]1(NC(=O)[C@@H]1C[C@@H]2CN1C(=O)[C@H](C1CCCCC1)NC(=O)N1CC(C1)OCCC/C=C/c1cc3c(cc(OCC)nc3cc1OC)O2)C(=O)NS(=O)(=O)C1CC1` [Example 39, (3R,5S,8S,18E)-8-cyclohexyl-N-((1R,2S)-1-{[(cyclopropylsulfonyl)amino]carbonyl}-2-vinylcyclopropyl)-25-ethoxy-21-methoxy-7,10-dioxo-2,14-dioxa-6,9,11,24-tetraazapentacyclo [18.6.2.1^3,6.1^11,13.0^23,27] triaconta-1(26),18,20,22,24,27-hexaene-5-carboxamide], the IC50 under setting [1] is 19 nM.

With `C=C[C@@H]1C[C@]1(NC(=O)C1C[C@@H]2CN1C(=O)[C@H](C1CCCC1)NC(=O)N1CC[C@@H](C1)OCCC/C=C/c1cc3ccc(OC)cc3nc1O2)C(=O)NS(=O)(=O)C1CC1` (stereo partly drawn) [Example 17, (1R,13E,19S,25S,28S)-25-cyclopentyl-N-((1R,2S)-1-{[(cyclopropylsulfonyl)amino]carbonyl}-2-vinylcyclopropyl)-7-methoxy-23,26-dioxo-2,18-dioxa-4,22,24,27-tetraazapentacyclo [25.2.1.1^19,22.0^3,12.0^5,10] hentriaconta-3(12),4,5,7,9,10,13-heptaene-28-carboxamide], the IC50 under setting [1] is 4 nM.

`C=C[C@@H]1C[C@]1(NC(=O)[C@@H]1C[C@@H]2CN1C(=O)[C@H](C1CCCC1)NC(=O)N1CC[C@@H](C1)OC/C=C/Cn1cc(C)c3c4ccccc4nc(c31)O2)C(=O)NS(=O)(=O)C1CC1` [Example 31, (4E,8S,14S,17S,19R)-14-cyclopentyl-N-((1R,2S)-1-{[(cyclopropylsulfonyl)amino]carbonyl}-2-vinylcyclopropyl)-1-methyl-12,15-dioxo-3,6,9,10,12,13,14,15,18,19-decahydro-8H,17H-8,11:16,19-dimethano-7,20-dioxa-2a,11,13,16,21-pentaazabenzo[g] cyclohenicosa[1,2,3-cd]indene-17-carboxamide]: under setting [1], the IC50 was 7 nM.

Turning to `CC[C@@H]1C[C@]1(NC(=O)[C@@H]1C[C@@H]2CN1C(=O)[C@H](C1CCCC1)NC(=O)N1CC[C@@H](C1)OCCCCCc1cc3ccc(OC)cc3nc1O2)C(=O)NS(=O)(=O)C1CC1` [Example 20, (1R,19S,25S,28S)-25-cyclopentyl-N-((1R,2R)-1-{[(cyclopropylsulfonyl)amino]carbonyl}-2-ethylcyclopropyl)-7-methoxy-23,26-dioxo-2,18-dioxa-4,22,24,27-tetraazapentacyclo [25.2.1.1^19,22.0^3,12.0^5,10] hentriaconta-3(12),4,5,7,9,10-hexaene-28-carboxamide], where the note is “Huh-7 cells with subgenomic HCV replicon, NS3 expression by Cell-ELISA, 96 hours incubation”, the IC50 is 15 nM.

Regarding `C=C[C@@H]1C[C@]1(NC(=O)[C@@H]1C[C@@H]2CN1C(=O)[C@H](C(C)(C)C)NC(=O)N1CCC[C@@H]1CC/C=C/c1cccc3c1CN(C3)C(=O)O2)C(=O)NS(=O)(=O)C1CC1` [Example 3, (1R,12E,16S,23S,26S)-23-tert-butyl-N-((1R,2S)-1-{[(cyclopropylsulfonyl)amino]carbonyl}-2-vinylcyclopropyl)-3,21,24-trioxo-2-oxa-4,20,22,25-tetraazapentacyclo [23.2.1.1^4,7.0^6,11.0^16,20] nonacosa-6,8,10,12-tetraene-26-carboxamide], the IC50 under setting [1] turned out to be 16 nM.

For the compound `C=C[C@@H]1C[C@]1(NC(=O)[C@@H]1CC2CN1C(=O)[C@H](C1CCCC1)NC(=O)N1CCCC(C1)OC/C=C/Cn1cc(C)c3c4ccccc4nc(c31)O2)C(=O)NS(=O)(=O)C1CC1` (stereo in doubt) [Example 15, (3S,5S,8S,18E)-8-cyclopentyl-N-((1R,2S)-1-{[(cyclopropylsulfonyl)amino]carbonyl}-2-vinylcyclopropyl)-23-methyl-7,10-dioxo-2,16-dioxa-6,9,11,21,31-pentaazahexacyclo [19.10.1.1^3,6.1^11,15.0^24,32.0^25,30] tetratriaconta-1(31),18,22,24(32),25,27,29-heptaene-5-carboxamide], the IC50 under setting [1] stood at 5 nM.

`C=C[C@@H]1C[C@]1(NC(=O)[C@@H]1C[C@@H]2CN1C(=O)[C@H](C1CCCC1)NC(=O)N1CC[C@@H](C1)OCCCc1ccc3nc(OCC)nc(c3c1)O2)C(=O)NS(=O)(=O)C1CC1` [Example 41, (3R,5S,8S,14S)-8-cyclopentyl-N-((1R,2S)-1-{[(cyclopropylsulfonyl)amino]carbonyl}-2-vinylcyclopropyl)-24-ethoxy-7,10-dioxo-2,15-dioxa-6,9,11,23,25-pentaazapentacyclo [17.6.2.1^3,6.1^11,14.0^22,26] nonacosa-1(25),19,21,23,26-pentaene-5-carboxamide]: the IC50 under setting [1] stood at 94 nM.

Take `C=C[C@@H]1C[C@]1(NC(=O)[C@@H]1C[C@@H]2CN1C(=O)[C@H](C1CCCCC1)NC(=O)N1CCC[C@@H](CCCCc3cc4c(cc(-c5ccccc5)nc4cc3OC)O2)C1)C(=O)NS(=O)(=O)C1CC1` [Example 7, (3R,5S,8S,15R)-8-cyclohexyl-N-((1R,2S)-1-{[(cyclopropylsulfonyl)amino]carbonyl}-2-vinylcyclopropyl)-21-methoxy-7,10-dioxo-25-phenyl-2-oxa-6,9,11,24-tetraazapentacyclo [18.6.2.1^3,6.1^11,15.0^23,27] triaconta-1(27),20,22,23,25,27-hexaene-5-carboxamide]: the IC50 (Hepatitis C virus, Huh-7, 96 h) was 8 nM.

These data come from patent US8591878B2, “Therapeutic compounds” (Merck Sharp & Dohme Corp., priority 2008, dated 2013).
